Measurements reported in patent US6914045B2, “Glycopeptide antibiotics” (Wyeth Holdings Corporation, priority 2001, dated 2005).
In brackets after ≈: the same amount, converted by molar mass.

Tests used:
Test in all cases: in vitro antibacterial evaluation, MIC by broth dilution
Format in all cases: cell-based
Enterococcus sp. = conditions: broth dilution, 18 hours at 35° C.
In short: (§1)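 Inoculum 5×10^5 CFU/mL; concentrations 64 to 0.06 μg/mL; MIC defined as lowest inhibitory level. Conducted by broth dilution under NCCLS guidelines.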

Staphylococcus sp. = conditions: broth dilution, 18 hours at 35° C.
In short: as §1

Streptococcus sp. = conditions: broth dilution, 18 hours at 35° C.
In short: as §1

Escherichia coli = conditions: 18 hours at 35° C.

## CC(c1ccccc1)C1NC(=O)CNC(=O)C(CO[Si](C)(C)C(C)(C)C)NC(=O)C(C(O)C2CNC(=N)N2C2OC3COC(C)(C)OC3C3OC(C)(C)OC32)NC(=O)C(C(O)C2CNC(=N)N2)NC(=O)C(Cc2ccc(O)cc2)NC1=O (stereo not shown) [Example 248]
Enterococcus sp.
  MIC Enterococcus avium (GC 4558): 8 µg/mL (≈ 6.86 µM)
  MIC Enterococcus faecalis (ATCC 29212): 64 µg/mL (≈ 54.9 µM)
  MIC Enterococcus faecalis (GC 2242): 64 µg/mL (≈ 54.9 µM)
  MIC Enterococcus faecalis (GC 2691): 32 µg/mL (≈ 27.5 µM)
  MIC Enterococcus faecalis (GC 3059): 128 µg/mL (≈ 110 µM)
  MIC Enterococcus faecalis (GC 4552): 128 µg/mL (≈ 110 µM)
  MIC Enterococcus faecalis (GC 4553): 16 µg/mL (≈ 13.7 µM)
  MIC Enterococcus faecalis (GC 4554): 64 µg/mL (≈ 54.9 µM)
  MIC Enterococcus faecalis (GC 6189): 32 µg/mL (≈ 27.5 µM)
  MIC Enterococcus faecium (GC 2243): 32 µg/mL (≈ 27.5 µM)
  MIC Enterococcus faecium (GC 4556): 32 µg/mL (≈ 27.5 µM)
  MIC Enterococcus faecium (GC 4557): 16 µg/mL (≈ 13.7 µM)
Enterococcus sp.; strain ATCC 29212
  MIC Enterococcus faecalis (ATCC 29212): 64 µg/mL (≈ 54.9 µM)
Enterococcus sp.; strain GC 2242
  MIC Enterococcus faecalis (GC 2242): 64 µg/mL (≈ 54.9 µM)
Enterococcus sp.; strain GC 2243
  MIC Enterococcus faecium (GC 2243): 32 µg/mL (≈ 27.5 µM)
Enterococcus sp.; strain GC 2691
  MIC Enterococcus faecalis (GC 2691): 32 µg/mL (≈ 27.5 µM)
Enterococcus sp.; strain GC 3059
  MIC Enterococcus faecalis (GC 3059): 128 µg/mL (≈ 110 µM)
Enterococcus sp.; strain GC 4552
  MIC Enterococcus faecalis (GC 4552): 128 µg/mL (≈ 110 µM)
Enterococcus sp.; strain GC 4553
  MIC Enterococcus faecalis (GC 4553): 16 µg/mL (≈ 13.7 µM)
Enterococcus sp.; strain GC 4554
  MIC Enterococcus faecalis (GC 4554): 64 µg/mL (≈ 54.9 µM)
Enterococcus sp.; strain GC 4556
  MIC Enterococcus faecium (GC 4556): 32 µg/mL (≈ 27.5 µM)
Enterococcus sp.; strain GC 4557
  MIC Enterococcus faecium (GC 4557): 16 µg/mL (≈ 13.7 µM)
Enterococcus sp.; strain GC 4558
  MIC Enterococcus avium (GC 4558): 8 µg/mL (≈ 6.86 µM)
Enterococcus sp.; strain GC 6189
  MIC Enterococcus faecalis (GC 6189): 32 µg/mL (≈ 27.5 µM)
Staphylococcus sp.
  MIC Coagulase Negative Staphylococcus (GC 4547): 16 µg/mL (≈ 13.7 µM)
  MIC Coagulase Negative Staphylococcus (GC 4548): 32 µg/mL (≈ 27.5 µM)
  MIC Coagulase Negative Staphylococcus (GC 4549): 32 µg/mL (≈ 27.5 µM)
  MIC Coagulase Negative Staphylococcus (GC 4551): 32 µg/mL (≈ 27.5 µM)
  MIC Coagulase Negative Staphylococcus (GC 6257): 16 µg/mL (≈ 13.7 µM)
  MIC Staphylococcus aureus (ATCC 29213): 32 µg/mL (≈ 27.5 µM)
  MIC Staphylococcus aureus (GC 1131): 32 µg/mL (≈ 27.5 µM)
  MIC Staphylococcus aureus (GC 3051): 64 µg/mL (≈ 54.9 µM)
  MIC Staphylococcus aureus (GC 3053): 64 µg/mL (≈ 54.9 µM)
  MIC Staphylococcus aureus (GC 4541): 32 µg/mL (≈ 27.5 µM)
  MIC Staphylococcus aureus (GC 4542): 64 µg/mL (≈ 54.9 µM)
  MIC Staphylococcus aureus (GC 4544): 32 µg/mL (≈ 27.5 µM)
  MIC Staphylococcus aureus (GC 4545): 32 µg/mL (≈ 27.5 µM)
  MIC Staphylococcus aureus-SMITH (GC 4543): 32 µg/mL (≈ 27.5 µM)
  MIC Staphylococcus haemolyticus (GC 4546): 16 µg/mL (≈ 13.7 µM)
Staphylococcus sp.; strain ATCC 29213
  MIC Staphylococcus aureus (ATCC 29213): 32 µg/mL (≈ 27.5 µM)
Staphylococcus sp.; strain GC 1131
  MIC Staphylococcus aureus (GC 1131): 32 µg/mL (≈ 27.5 µM)
Staphylococcus sp.; strain GC 3051
  MIC Staphylococcus aureus (GC 3051): 64 µg/mL (≈ 54.9 µM)
Staphylococcus sp.; strain GC 3053
  MIC Staphylococcus aureus (GC 3053): 64 µg/mL (≈ 54.9 µM)
Staphylococcus sp.; strain GC 4541
  MIC Staphylococcus aureus (GC 4541): 32 µg/mL (≈ 27.5 µM)
Staphylococcus sp.; strain GC 4542
  MIC Staphylococcus aureus (GC 4542): 64 µg/mL (≈ 54.9 µM)
Staphylococcus sp.; strain GC 4543
  MIC Staphylococcus aureus-SMITH (GC 4543): 32 µg/mL (≈ 27.5 µM)
Staphylococcus sp.; strain GC 4544
  MIC Staphylococcus aureus (GC 4544): 32 µg/mL (≈ 27.5 µM)
Staphylococcus sp.; strain GC 4545
  MIC Staphylococcus aureus (GC 4545): 32 µg/mL (≈ 27.5 µM)
Staphylococcus sp.; strain GC 4546
  MIC Staphylococcus haemolyticus (GC 4546): 16 µg/mL (≈ 13.7 µM)
Staphylococcus sp.; strain GC 4547
  MIC Coagulase Negative Staphylococcus (GC 4547): 16 µg/mL (≈ 13.7 µM)
Staphylococcus sp.; strain GC 4548
  MIC Coagulase Negative Staphylococcus (GC 4548): 32 µg/mL (≈ 27.5 µM)
Staphylococcus sp.; strain GC 4549
  MIC Coagulase Negative Staphylococcus (GC 4549): 32 µg/mL (≈ 27.5 µM)
Staphylococcus sp.; strain GC 4551
  MIC Coagulase Negative Staphylococcus (GC 4551): 32 µg/mL (≈ 27.5 µM)
Staphylococcus sp.; strain GC 6257
  MIC Coagulase Negative Staphylococcus (GC 6257): 16 µg/mL (≈ 13.7 µM)
Streptococcus sp.
  MIC Streptococcus agalactiae (GC 4564): 64 µg/mL (≈ 54.9 µM)
  MIC Streptococcus pneumoniae (ATCC 6301): 64 µg/mL (≈ 54.9 µM)
  MIC Streptococcus pneumoniae (GC 1894): 64 µg/mL (≈ 54.9 µM)
  MIC Streptococcus pneumoniae (GC 4565): 128 µg/mL (≈ 110 µM)
  MIC Streptococcus pyogenes (GC 4563): 32 µg/mL (≈ 27.5 µM)
Streptococcus sp.; strain ATCC 6301
  MIC Streptococcus pneumoniae (ATCC 6301): 64 µg/mL (≈ 54.9 µM)
Streptococcus sp.; strain GC 1894
  MIC Streptococcus pneumoniae (GC 1894): 64 µg/mL (≈ 54.9 µM)
Streptococcus sp.; strain GC 4563
  MIC Streptococcus pyogenes (GC 4563): 32 µg/mL (≈ 27.5 µM)
Streptococcus sp.; strain GC 4564
  MIC Streptococcus agalactiae (GC 4564): 64 µg/mL (≈ 54.9 µM)
Streptococcus sp.; strain GC 4565
  MIC Streptococcus pneumoniae (GC 4565): 128 µg/mL (≈ 110 µM)
Escherichia coli
  MIC Escherichia coli (ATCC 25922): 64 µg/mL (≈ 54.9 µM)
  MIC Escherichia coli (GC 4559): 64 µg/mL (≈ 54.9 µM)
  MIC Escherichia coli (GC 4560): 8 µg/mL (≈ 6.86 µM)
